# Experimental data from patent publication US9108972B2, “Salts of DPP-IV inhibitor” (Cadila Healthcare Limited, priority 2011, dated 2015).
# Legend:
# [1] = test system: male C57BLKS/J mice; experiment: Oral glucose tolerance test (OGTT) in male C57 mice; format: in vivo; details: for efficacy compared with crystalline monohydrate phosphate salt (SP): acute oral glucose tolerance test in C57 mice, 10 mg/kg PO; for % change in AUC glucose: single dose 10 mg/kg PO with glucose load 3 g/kg, male C57 mice fasted 18 h, AUC for 120 min, vs vehicle control
# Protocol: Eight to ten weeks old male C57BLKS/J mice obtained from Animal Research Facility of Zydus Research Centre were used. The mice were allowed ad libitum access to chow and water. Animals were on a 12-hour light, 12-hour dark cycle. Protocol for use of animals for conducting this study has been reviewed and approved by Institutional Animal Ethics Committee (IAEC).
# Oral glucose tolerance test (OGTT) was performed on these animals. The mice were deprived of food for 18 h and then drug or vehicles were administered with a glucose load (3 g/kg) by oral route. Blood (200 μL) samples were collected at 0, 30, 60, 120 and 240 min. Serum glucose concentrations were determined using commercially available kits purchased from RFCL (New Delhi, India) using spectrophotometric assay. […] The area under the curve for 120 min was calculated, based on which the percentage inhibition was obtained for each treatment.
# [2] = Stability study on storage (25° C. ± 2° C./60% ± 5% RH) for 3 months
# Protocol: The complete x-ray powder spectrum, which was recorded with a Rigaku multifelx 2.0 Kilowatt X-ray powder diffractometer model using copper radiation. The X-ray diffraction pattern was recorded by keeping the instrument parameters listed below:
# i) X-ray: Cu/40 kv/30 mA, Diverging slit: 1°, Scattering slit: 1°, Receiving slit: 0.15 mm, Monochromator RS: 0.8 mm, Counter: Scintillation counters;
# Scan mode: Continuous, Scan speed: 4.000 deg./min., Sampling width: 0.010°,
# Scan axes: 2 theta vs CPS, Scan range: 4° to 40.0°, Theta offset: 0.000.
# iv) (2R)-4-oxo-4-[3-(trifluoromethyl)-5,6-dihydro[1,2,4]-triazolo[4,3-a]pyrazin-7(8H)-yl]-1-(2,4,5-trifluorophenyl)butan-2-amine and its salts were analyzed for purity by analytical HPLC at λmax 210 nm using column YMC-C8, 250 mm×4.6 mm×4 mm or its equivalent on AGILENT 1100 series under the following conditions, Detector: UV absorption photometer Wave length: 210 nm Column temp.: 25° C. Flow rate: 1.0 mL/min. Injection Vol.: 10 μL Mobile Phase: 10 mM KH2PO4 (pH-6.8): Acetonitrile (55:45) (2R)-4-oxo-4-[3-(trifluoromethyl)-5,6-dihydro[1,2,4]-triazolo[4,3-a]pyrazin-7(8H)-yl]-1-(2,4,5-trifluorophenyl)butan-2-amine and its salts were analyzed for chiral purity by HPLC at λmax 268 nm using column Chiral-Cel OJ-H, 250 mm×4.6 mm×5μ or its equivalent on Shimadzu LCVP model under the following conditions, Detector: UV absorption photometer Wave length: 268 nm Column temp.: 35° C. Flow rate: 0.8 mL/min.
# [3] = Stability of the novel salts versus free base (statement, no method given); format: physicochemical; details: compared with the free base; no conditions given
# [4] = After 3 Month storage at 25° C. ± 2° C./60% ± 5% RH
# [5] = After 3 Month storage at 25° C. ± 2° C./60% ± 5% RH, listed as besylate crystalline(II)
# [6] = Initial, listed as besylate crystalline(II)
# [7] = After 3 Month storage at 25° C. ± 2° C./60% ± 5% RH, listed as besylate amorphous
# [8] = Initial, listed as besylate amorphous
compound,measurement,setting,value
"N[C@@H](CC(=O)N1CCn2c(nnc2C(F)(F)F)C1)Cc1cc(F)c(F)cc1F.O=S(=O)(O)c1ccccc1 [SBII, crystalline besylate salt(II) of (2R)-4-oxo-4-[3-(trifluoromethyl)-5,6-dihydro[1,2,4]triazolo[4,3-a]pyrazin-7(8H)-yl]-1-(2,4,5-trifluorophenyl)butan-2-amine]",efficacy compared with crystalline monohydrate phosphate salt (SP),[1],better than
same,% change in AUC glucose,[1]; 10 mg/kg,−45.7 ± 1.5%
same,Polymorphism XRD,[2]; [4],No Change
same,Description,[2]; [5],Off white colored
same,Purity (By HPLC),[2]; [5],99.97%
same,Water (by KFR),[2]; [5],2.90%
same,Description,[2]; Initial,white colored powder
same,Polymorphism XRD,[2]; [6],Crystalline pattern
same,Purity (By HPLC),[2]; [6],99.87%
same,Water (by KFR),[2]; [6],2.77%
"N[C@@H](CC(=O)N1CCn2c(nnc2C(F)(F)F)C1)Cc1cc(F)c(F)cc1F [SB, (2R)-4-oxo-4-[3-(trifluoromethyl)-5,6-dihydro[1,2,4]triazolo[4,3-a]pyrazin-7(8H)-yl]-1-(2,4,5-trifluorophenyl)butan-2-amine, reference compound]",% change in AUC glucose,[1],−36.5 ± 1.6%
"N[C@@H](CC(=O)N1CCn2c(nnc2C(F)(F)F)C1)Cc1cc(F)c(F)cc1F.O=S(=O)(O)c1ccccc1 [SBa, amorphous besylate salt of (2R)-4-oxo-4-[3-(trifluoromethyl)-5,6-dihydro[1,2,4]triazolo[4,3-a]pyrazin-7(8H)-yl]-1-(2,4,5-trifluorophenyl)butan-2-amine]",efficacy compared with crystalline monohydrate phosphate salt (SP),[1],better than
same,% change in AUC glucose,[1]; 10 mg/kg,−43.3 ± 1.6%
same,Polymorphism XRD,[2]; [4],No Change
same,Description,[2]; [7],white colored powder
same,Purity (By HPLC),[2]; [7],99.52%
same,Water (by KFR),[2]; [7],3.14%
same,Description,[2]; Initial,white colored powder
same,Polymorphism XRD,[2]; [8],amorphous pattern
same,Purity (By HPLC),[2]; [8],99.41%
same,Water (by KFR),[2]; [8],1.01%
"(2R)-4-oxo-4-[3-(trifluoromethyl)-5,6-dihydro[1,2,4]triazolo[4,3-a]pyrazin-7(8H)-yl]-1-(2,4,5-trifluorophenyl)butan-2-amine gentisate [SG]",efficacy compared with crystalline monohydrate phosphate salt (SP),[1],better than
same,% change in AUC glucose,[1],−39.4 ± 1.8%
same,stability of the salt,[3],very stable
"Cl.N[C@@H](CC(=O)N1CCn2c(nnc2C(F)(F)F)C1)Cc1cc(F)c(F)cc1F [Hydrochloride crystalline, hydrochloride salt of (2R)-4-oxo-4-[3-(trifluoromethyl)-5,6-dihydro[1,2,4]triazolo[4,3-a]pyrazin-7(8H)-yl]-1-(2,4,5-trifluorophenyl)butan-2-amine]",Description,[2]; [4],white colored powder
same,Polymorphism XRD,[2]; [4],No Change
same,Purity (By HPLC),[2]; [4],99.91%
same,Water (by KFR),[2]; [4],4.01%
same,Description,[2]; Initial,white colored powder
same,Polymorphism XRD,[2]; Initial,Crystalline pattern
same,Purity (By HPLC),[2]; Initial,99.82%
same,Water (by KFR),[2]; Initial,3.54%
"N[C@@H](CC(=O)N1CCn2c(nnc2C(F)(F)F)C1)Cc1cc(F)c(F)cc1F.O=C(O)C(F)(F)F [TFA salt, Trifluoroacetic acid salt of (2R)-4-oxo-4-[3-(trifluoromethyl)-5,6-dihydro[1,2,4]triazolo[4,3-a]pyrazin-7(8H)-yl]-1-(2,4,5-trifluorophenyl)butan-2-amine]",Description,[2]; [4],white colored powder
same,Polymorphism XRD,[2]; [4],No Change
same,Purity (By HPLC),[2]; [4],97.5%
same,Water (by KFR),[2]; [4],3.45%
same,Description,[2]; Initial,white colored powder
same,Polymorphism XRD,[2]; Initial,Crystalline pattern
same,Purity (By HPLC),[2]; Initial,97.89%
same,Water (by KFR),[2]; Initial,2.77%
"N[C@@H](CC(=O)N1CCn2c(nnc2C(F)(F)F)C1)Cc1cc(F)c(F)cc1F.O=P(O)(O)O [SP, (2R)-4-oxo-4-[3-(trifluoromethyl)-5,6-dihydro[1,2,4]triazolo[4,3-a]pyrazin-7(8H)-yl]-1-(2,4,5-trifluorophenyl)butan-2-amine phosphate salt, reference compound]",% change in AUC glucose,[1],−31.9 ± 1.8%
"N[C@@H](CC(=O)N1CCn2c(nnc2C(F)(F)F)C1)Cc1cc(F)c(F)cc1F.O=C(O)CCCCC(=O)O [adipate, adipic acid salt of (2R)-4-oxo-4-[3-(trifluoromethyl)-5,6-dihydro[1,2,4]triazolo[4,3-a]pyrazin-7(8H)-yl]-1-(2,4,5-trifluorophenyl)butan-2-amine]",stability of the salt,[3],very stable
